Earlier results, collected in patent publication US20050208119A1, “Encapsulated oral chelating preparations” (priority 2004, published 2005).

Conditions: oral administration

SMILES: O=C(O)CN(CCN(CC(=O)O)CC(=O)O)CC(=O)O [EDTA, ethylene-diaminetetraacetic acid]
- fraction absorbed when administered by mouth (general consensus): about five
- unabsorbed fraction that remains within the digestive tract (reported): 95%
